The source of these data is patent publication US9321776B2, “Isochromene derivatives as phoshoinositide 3-kinases inhibitors” (CHIESI FARMACEUTICI S.p.A., priority 2013, dated 2016).

Holding throughout (assay): PI3K enzyme inhibitory activity in the cell free assay (ADP-Glo Kinase Assay)
Holding throughout (format): biochemical

Assay [1] addresses T1, PI3Kα (Homo sapiens, UniProt P42336).
T1 construct: purchased Millipore Ltd (Billerica, Mass.)
The conditions noted are these: human recombinant PI3Kα, ATP 50 μM; read-out: PI3K alpha inhibition.

The target in assay [2] is T2, PI3Kβ (Homo sapiens, UniProt P42338).
T2 construct: purchased Millipore Ltd (Billerica, Mass.)
T2 sequence (P42338 whole entry): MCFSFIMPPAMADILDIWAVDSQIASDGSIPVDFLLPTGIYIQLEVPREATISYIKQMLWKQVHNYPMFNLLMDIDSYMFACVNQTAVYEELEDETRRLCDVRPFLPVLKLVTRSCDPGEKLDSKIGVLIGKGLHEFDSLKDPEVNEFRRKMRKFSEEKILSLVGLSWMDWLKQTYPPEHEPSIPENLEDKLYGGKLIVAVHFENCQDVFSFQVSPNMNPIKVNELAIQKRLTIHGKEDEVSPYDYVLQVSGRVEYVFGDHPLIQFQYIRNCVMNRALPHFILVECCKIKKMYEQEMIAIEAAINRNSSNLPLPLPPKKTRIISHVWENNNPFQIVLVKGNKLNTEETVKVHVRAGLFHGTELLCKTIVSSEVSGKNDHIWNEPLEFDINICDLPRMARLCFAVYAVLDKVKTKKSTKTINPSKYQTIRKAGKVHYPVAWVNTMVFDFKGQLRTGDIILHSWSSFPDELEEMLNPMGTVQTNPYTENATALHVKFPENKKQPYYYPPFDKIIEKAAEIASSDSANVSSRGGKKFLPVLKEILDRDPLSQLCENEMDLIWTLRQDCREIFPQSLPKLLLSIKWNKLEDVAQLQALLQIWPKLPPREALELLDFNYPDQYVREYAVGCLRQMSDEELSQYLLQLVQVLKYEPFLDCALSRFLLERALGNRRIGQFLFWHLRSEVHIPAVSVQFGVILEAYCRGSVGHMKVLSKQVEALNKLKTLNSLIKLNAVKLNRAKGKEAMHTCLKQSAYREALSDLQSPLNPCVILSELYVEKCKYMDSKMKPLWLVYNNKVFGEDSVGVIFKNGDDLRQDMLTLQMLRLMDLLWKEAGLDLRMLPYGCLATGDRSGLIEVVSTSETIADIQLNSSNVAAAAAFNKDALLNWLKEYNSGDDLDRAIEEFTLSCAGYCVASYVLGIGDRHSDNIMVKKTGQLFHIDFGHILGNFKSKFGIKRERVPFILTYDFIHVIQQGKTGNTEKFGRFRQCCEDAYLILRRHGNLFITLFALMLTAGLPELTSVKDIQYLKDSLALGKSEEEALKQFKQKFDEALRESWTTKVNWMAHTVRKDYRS
The conditions noted are these: human recombinant PI3Kβ, ATP 100 μM; read-out: PI3K beta inhibition.

Assay [3] has as its target T3, PI3Kδ (Homo sapiens, UniProt O00329).
T3 construct: purchased Millipore Ltd (Billerica, Mass.)
T3 sequence (O00329 1-1044): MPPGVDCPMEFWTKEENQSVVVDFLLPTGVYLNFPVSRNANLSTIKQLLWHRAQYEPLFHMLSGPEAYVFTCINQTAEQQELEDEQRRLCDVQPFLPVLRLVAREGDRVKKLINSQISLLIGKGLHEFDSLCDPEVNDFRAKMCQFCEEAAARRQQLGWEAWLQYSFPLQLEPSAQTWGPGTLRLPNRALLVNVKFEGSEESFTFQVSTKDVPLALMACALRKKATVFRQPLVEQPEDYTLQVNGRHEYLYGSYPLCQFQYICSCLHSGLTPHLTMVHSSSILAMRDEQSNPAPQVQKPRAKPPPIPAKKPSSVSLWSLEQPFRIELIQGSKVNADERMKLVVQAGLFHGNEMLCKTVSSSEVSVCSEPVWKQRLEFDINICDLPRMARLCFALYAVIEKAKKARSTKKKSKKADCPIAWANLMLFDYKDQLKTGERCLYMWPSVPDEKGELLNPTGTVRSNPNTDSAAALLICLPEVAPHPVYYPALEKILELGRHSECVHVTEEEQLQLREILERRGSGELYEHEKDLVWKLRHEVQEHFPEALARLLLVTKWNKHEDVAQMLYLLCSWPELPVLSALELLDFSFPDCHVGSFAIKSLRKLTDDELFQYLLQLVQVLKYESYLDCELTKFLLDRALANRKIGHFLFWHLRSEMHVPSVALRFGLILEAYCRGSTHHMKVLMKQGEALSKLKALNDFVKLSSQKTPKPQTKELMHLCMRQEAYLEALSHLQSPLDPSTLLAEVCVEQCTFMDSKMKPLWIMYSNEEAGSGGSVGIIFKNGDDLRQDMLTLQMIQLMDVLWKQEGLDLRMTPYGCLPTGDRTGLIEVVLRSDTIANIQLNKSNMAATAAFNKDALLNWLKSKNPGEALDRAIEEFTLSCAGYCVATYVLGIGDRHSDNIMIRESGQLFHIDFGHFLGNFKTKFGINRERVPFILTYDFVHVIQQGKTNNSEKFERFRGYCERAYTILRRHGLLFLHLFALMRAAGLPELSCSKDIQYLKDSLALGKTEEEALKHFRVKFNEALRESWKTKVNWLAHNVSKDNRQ
The conditions noted are these: human recombinant PI3Kδ, ATP 80 μM; read-out: PI3K delta inhibition.

Assay [4] addresses T4, PI3Kγ (Homo sapiens, UniProt P48736).
T4 construct: purchased Millipore Ltd (Billerica, Mass.)
The settings on record: human recombinant PI3Kγ, ATP 30 μM; read-out: PI3K gamma inhibition.

Molecules are shown by their SMILES. Where a name gives a salt, the structure may show the parent alone. A value given as a limit tells only on which side of the number the result lay.

T1 sequence (P42336 whole entry): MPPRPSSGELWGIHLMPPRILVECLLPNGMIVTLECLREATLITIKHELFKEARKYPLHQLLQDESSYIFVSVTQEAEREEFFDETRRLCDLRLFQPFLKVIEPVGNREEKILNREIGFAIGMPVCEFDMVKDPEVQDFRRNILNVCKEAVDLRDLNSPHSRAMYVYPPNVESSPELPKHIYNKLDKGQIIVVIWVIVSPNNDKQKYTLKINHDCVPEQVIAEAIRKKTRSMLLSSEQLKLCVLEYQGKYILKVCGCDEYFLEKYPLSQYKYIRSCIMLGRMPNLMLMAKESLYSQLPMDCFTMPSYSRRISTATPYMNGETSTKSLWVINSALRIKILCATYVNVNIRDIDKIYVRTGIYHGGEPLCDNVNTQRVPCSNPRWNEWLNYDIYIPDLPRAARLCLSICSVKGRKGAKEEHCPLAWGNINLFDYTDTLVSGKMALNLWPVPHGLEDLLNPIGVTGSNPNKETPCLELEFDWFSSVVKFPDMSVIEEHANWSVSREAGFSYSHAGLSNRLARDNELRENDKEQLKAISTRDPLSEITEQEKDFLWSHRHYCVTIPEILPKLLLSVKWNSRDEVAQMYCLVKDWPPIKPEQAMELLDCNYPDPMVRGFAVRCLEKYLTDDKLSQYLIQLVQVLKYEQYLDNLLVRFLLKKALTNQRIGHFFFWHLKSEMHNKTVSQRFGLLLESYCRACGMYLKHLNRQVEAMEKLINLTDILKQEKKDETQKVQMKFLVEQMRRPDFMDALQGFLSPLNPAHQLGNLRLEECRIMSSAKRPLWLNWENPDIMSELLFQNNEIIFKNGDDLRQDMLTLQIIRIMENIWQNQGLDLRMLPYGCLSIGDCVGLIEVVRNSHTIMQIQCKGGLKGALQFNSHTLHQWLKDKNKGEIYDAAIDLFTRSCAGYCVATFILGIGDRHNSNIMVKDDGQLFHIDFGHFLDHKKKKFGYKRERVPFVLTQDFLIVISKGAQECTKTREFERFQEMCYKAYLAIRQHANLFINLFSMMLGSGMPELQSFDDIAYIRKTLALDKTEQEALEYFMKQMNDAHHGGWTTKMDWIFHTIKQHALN
T4 sequence (P48736 whole entry): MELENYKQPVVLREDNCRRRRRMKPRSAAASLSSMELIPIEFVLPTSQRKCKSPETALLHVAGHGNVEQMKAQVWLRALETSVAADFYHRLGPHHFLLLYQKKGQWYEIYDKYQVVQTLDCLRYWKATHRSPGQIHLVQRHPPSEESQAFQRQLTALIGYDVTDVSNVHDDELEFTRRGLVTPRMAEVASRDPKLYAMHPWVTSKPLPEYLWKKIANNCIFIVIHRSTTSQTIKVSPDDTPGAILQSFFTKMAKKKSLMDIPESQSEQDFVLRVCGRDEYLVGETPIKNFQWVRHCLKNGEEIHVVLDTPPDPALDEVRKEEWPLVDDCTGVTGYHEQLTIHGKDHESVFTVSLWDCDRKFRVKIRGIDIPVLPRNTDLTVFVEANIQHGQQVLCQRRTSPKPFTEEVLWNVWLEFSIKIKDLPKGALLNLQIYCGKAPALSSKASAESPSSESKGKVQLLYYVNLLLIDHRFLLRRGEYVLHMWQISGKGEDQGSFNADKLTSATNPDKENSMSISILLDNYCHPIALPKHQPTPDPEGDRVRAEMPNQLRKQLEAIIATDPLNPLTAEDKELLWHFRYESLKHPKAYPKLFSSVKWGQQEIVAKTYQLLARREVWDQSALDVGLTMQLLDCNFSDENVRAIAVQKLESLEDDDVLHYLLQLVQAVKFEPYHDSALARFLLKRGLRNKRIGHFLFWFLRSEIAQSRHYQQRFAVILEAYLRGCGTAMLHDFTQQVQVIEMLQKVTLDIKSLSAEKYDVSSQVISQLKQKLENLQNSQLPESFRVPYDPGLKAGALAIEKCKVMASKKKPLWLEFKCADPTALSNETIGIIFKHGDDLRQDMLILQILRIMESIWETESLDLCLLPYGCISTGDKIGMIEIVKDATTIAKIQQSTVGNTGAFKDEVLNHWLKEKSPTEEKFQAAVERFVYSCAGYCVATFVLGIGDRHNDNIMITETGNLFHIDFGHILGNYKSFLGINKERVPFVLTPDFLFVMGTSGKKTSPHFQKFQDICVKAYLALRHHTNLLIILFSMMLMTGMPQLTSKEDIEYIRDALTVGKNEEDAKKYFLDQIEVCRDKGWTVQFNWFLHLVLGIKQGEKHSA

Regarding `CC(Nc1ncnc(N)c1C#N)c1oc(=O)c2ccccc2c1-c1cn[nH]c1` (stereo not drawn) [Example 123, 4-amino-6-((1-(1-oxo-4-(1H-pyrazol-4-yl)-1H-isochromen-3-yl)ethyl)amino)pyrimidine-5-carbonitrile hydrochloride], the IC50 in assay [1], in assay [2], in assay [3] and in assay [4] was 0.01 to 1 µM each time.

Turning to `CC(Nc1ncnc2[nH]cnc12)c1oc(=O)c2ccccc2c1-c1cnc(N)nc1` (stereo not drawn) [Example 124, 3-(1-(9H-purin-6-ylamino)ethyl)-4-(2-aminopyrimidin-5-yl)-1H-isochromen-1-one], the IC50 is greater than 1 µM in assay [1], greater than 1 µM in assay [2], 0.01 to 1 µM in assay [3] and greater than 1 µM in assay [4].

On to `Nc1ncnc2c1c(-c1cc(O)cc(F)c1)nn2CC1=C(c2ccccc2)c2ccccc2CO1` [Example 128, 3-(4-amino-1-((4-phenyl-1H-isochromen-3-yl)methyl)-1H-pyrazolo[3,4-d]pyrimidin-3-yl)-5-fluorophenol], for which the IC50 in assay [1] is greater than 1 µM; in assay [2], 0.01 to 1 µM; in assay [3], 0.01 to 1 µM; in assay [4], 0.01 to 1 µM.

On to `Nc1ncnc2c1c(-c1cncc(O)c1)nn2CC1=C(c2ccccc2)c2ccccc2CO1` [Example 129, 5-(4-amino-1-((4-phenyl-1H-isochromen-3-yl)methyl)-1H-pyrazolo[3,4-d]pyrimidin-3-yl)pyridin-3-ol], for which the IC50 in assay [1] is 0.01 to 1 µM; in assay [2], 0.01 to 1 µM; in assay [3], 0.01 to 1 µM; in assay [4], greater than 1 µM.

`CC(c1oc(=O)c2ccccc2c1CN1CCOCC1)n1nc(-c2cc(O)cc(F)c2)c2c(N)ncnc21` (stereo not drawn) [Example 130, 3-(1-(4-amino-3-(3-fluoro-5-hydroxyphenyl)-1H-pyrazolo[3,4-d]pyrimidin-1-yl)ethyl)-4-(morpholinomethyl)-1H-isochromen-1-one]: the IC50 is 0.01 to 1 µM in assay [1], 0.01 to 1 µM in assay [2], less than 0.01 µM in assay [3] and 0.01 to 1 µM in assay [4].

Take `CC(c1oc(=O)c2ccccc2c1-c1ccc(CN2CCN(C)CC2)s1)n1nc(-c2cc(O)cc(F)c2)c2c(N)ncnc21` (stereo not drawn) [Example 135, 3-(1-(4-amino-3-(3-fluoro-5-hydroxyphenyl)-1H-pyrazolo[3,4-d]pyrimidin-1-yl)ethyl)-4-(5-((4-methyl)piperazin-1-yl)methyl)thiophen-2-yl)-1H-isochromen-1-one, dihydrochloride]: the IC50 in assay [1] is 0.01 to 1 µM; in assay [2], 0.01 to 1 µM; in assay [3] it was less than 0.01 µM; in assay [4], 0.01 to 1 µM.

With `CC(c1oc(=O)c2ccccc2c1-c1ccc(CCCN(C)C)s1)n1nc(-c2cc(O)cc(F)c2)c2c(N)ncnc21` (stereo not drawn) [Example 136, 3-(1-(4-amino-3-(3-fluoro-5-hydroxyphenyl)-1H-pyrazolo[3,4-d]pyrimidin-1-yl)ethyl)-4-(5-(3-(dimethylamino)propyl)thiophen-2-yl)-1H-isochromen-1-one, Formate], the IC50 is greater than 1 µM in assay [1], 0.01 to 1 µM in assay [2], less than 0.01 µM in assay [3] and greater than 1 µM in assay [4].

For the compound `CC(c1oc(=O)c2ccccc2c1-c1cccc(CCCN(C)C)c1)n1nc(-c2cc(O)cc(F)c2)c2c(N)ncnc21` (stereo not drawn) [Example 137, 3-(1-(4-amino-3-(3-fluoro-5-hydroxyphenyl)-1H-pyrazolo[3,4-d]pyrimidin-1-yl)ethyl)-4-(3-(3-(dimethylamino)propyl)phenyl)-1H-isochromen-1-one, Formic Acid], the IC50 was greater than 1 µM in assay [1], 0.01 to 1 µM in assay [2], less than 0.01 µM in assay [3] and 0.01 to 1 µM in assay [4].

In the case of `CC(c1oc(=O)c2ccccc2c1-c1ccc(CN2CCN(C)CC2)cc1)n1nc(-c2cc(O)cc(F)c2)c2c(N)ncnc21` (stereo not drawn) [Example 139, 3-(1-(4-amino-3-(3-fluoro-5-hydroxyphenyl)-1H-pyrazolo[3,4-d]pyrimidin-1-yl)ethyl)-4-(4-((4-methylpiperazin-1-yl)methyl)phenyl)-1H-isochromen-1-one, dihydrochloride], the IC50 in assay [1] was greater than 1 µM; in assay [2], greater than 1 µM; in assay [3] it was less than 0.01 µM; in assay [4] it was greater than 1 µM.

In the case of `CC(c1oc(=O)c2ccccc2c1-c1ccc(CN2CCCC2)cc1)n1nc(-c2cc(O)cc(F)c2)c2c(N)ncnc21` (stereo not drawn) [Example 140, 3-(1-(4-amino-3-(3-fluoro-5-hydroxyphenyl)-1H-pyrazolo[3,4-d]pyrimidin-1-yl)ethyl)-4-(4-(pyrrolidin-1-ylmethyl)phenyl)-1H-isochromen-1-one, hydrochloride], the IC50 in assay [1] was greater than 1 µM; in assay [2] it was 0.01 to 1 µM; in assay [3], less than 0.01 µM; in assay [4] it was greater than 1 µM.

Take `CC(c1oc(=O)c2ccccc2c1-c1ccc(CN2CCCCC2)cc1)n1nc(-c2cc(O)cc(F)c2)c2c(N)ncnc21` (stereo not drawn) [Example 141, 3-(1-(4-amino-3-(3-fluoro-5-hydroxyphenyl)-1H-pyrazolo[3,4-d]pyrimidin-1-yl)ethyl)-4-(4-(piperidin-1-ylmethyl)phenyl)-1H-isochromen-1-one, hydrochloride]: the IC50 is greater than 1 µM in assay [1], 0.01 to 1 µM in assay [2], less than 0.01 µM in assay [3] and greater than 1 µM in assay [4].

`CC(c1oc(=O)c2ccccc2c1-c1cccc(CN2CCN(C)CC2)c1)n1nc(-c2cc(O)cc(F)c2)c2c(N)ncnc21` (stereo not drawn) [Example 142, 3-(1-(4-amino-3-(3-fluoro-5-hydroxyphenyl)-1H-pyrazolo[3,4-d]pyrimidin-1-yl)ethyl)-4-(3-((4-methylpiperazin-1-yl)methyl)phenyl)-1H-isochromen-1-one]: the IC50 in assay [1] is greater than 1 µM; in assay [2] it was greater than 1 µM; in assay [3], less than 0.01 µM; in assay [4], greater than 1 µM.

On to `CC(c1oc(=O)c2ccccc2c1C1=CC(C)(C)NC(C)(C)C1)n1nc(-c2cc(O)cc(F)c2)c2c(N)ncnc21` (stereo not drawn) [Example 144, 3-(1-(4-amino-3-(3-fluoro-5-hydroxyphenyl)-1H-pyrazolo[3,4-d]pyrimidin-1-yl)ethyl)-4-(2,2,6,6-tetramethyl-1,2,3,6-tetrahydropyridin-4-yl)-1H-isochromen-1-one hydrochloride], for which the IC50 in assay [1] was greater than 1 µM; in assay [2], 0.01 to 1 µM; in assay [3] it was less than 0.01 µM; in assay [4], 0.01 to 1 µM.

In the case of `CC(c1oc(=O)c2ccccc2c1C1=CC(C)(C)NC(C)(C)C1)n1nc(-c2cncc(O)c2)c2c(N)ncnc21` (stereo not drawn) [Example 145, 3-(1-(4-amino-3-(5-hydroxypyridin-3-yl)-1H-pyrazolo[3,4-d]pyrimidin-1-yl)ethyl)-4-(2,2,6,6-tetramethyl-1,2,3,6-tetrahydropyridin-4-yl)-1H-isochromen-1-one dihydrochloride], the IC50 in assay [1] is 0.01 to 1 µM; in assay [2] it was 0.01 to 1 µM; in assay [3], less than 0.01 µM; in assay [4], 0.01 to 1 µM.

As to `CC(c1oc(=O)c2ccccc2c1C1=CCN(C(=O)CCCN(C)C)CC1)n1nc(-c2cc(O)cc(F)c2)c2c(N)ncnc21` (stereo not drawn) [Example 146, 3-(1-(4-amino-3-(3-fluoro-5-hydroxyphenyl)-1H-pyrazolo[3,4-d]pyrimidin-1-yl)ethyl)-4-(1-(4-(dimethylamino)butanoyl)-1,2,3,6-tetrahydropyridin-4-yl)-1H-isochromen-1-one formate], the IC50 in assay [1] was greater than 1 µM; in assay [2], 0.01 to 1 µM; in assay [3], less than 0.01 µM; in assay [4] it was 0.01 to 1 µM.
